Assay results: patent US8445457B2, “Oral pharmaceutical solutions containing telbivudine” (Novartis AG, priority 2007, dated 2013)

Assay: Pre-formulation telbivudine stability versus pH at elevated temperature
Format: physicochemical
Details: investigated pH 2-9, 50° C., from assay and thymine content
Experimental: During pre-formulation, telbivudine stability is investigated within a range of pH from 2-9, at elevated temperature 50° C. […] The pH of the oral solution is a highly relevant parameter, due to the influence pH on the retardation of microbial growth in the solution during storage.

pH range optimal for drug substance stability: 3-9
Compound: Cc1cn([C@@H]2C[C@@H](O)[C@H](CO)O2)c(=O)[nH]c1=O [telbivudine, β-L-thymidine/2′-deoxy-L-thymidine]
